{
  "source": "ChEMBL document CHEMBL3132775",
  "about": "“Design, synthesis and biochemical investigation, by in vitro luciferase reporter system, of peptide nucleic acids as new inhibitors of miR-509-3p involved in the regulation of cystic fibrosis disease-gene expression” (Medchemcomm, 2014)",
  "key": {"[1]": {"test_system": "A549", "test": "Inhibition of miR-509-3p (unknown origin) transfected in human A549 cells assessed as luciferase activity at 50 uM by dual luciferase reporter gene assay", "type": "cell-based", "set-up": "scale not given: the % may be the effect or the level left"}, "[2]": {"test": "Binding affinity to miR-509-3p (unknown origin) assessed as heteroduplex formation at 1:15 and 1:5 ratio after 2 hrs by EMSA"}, "[3]": {"test": "Binding affinity to miR-509-3p (unknown origin) assessed as apparent melting temperature by UV-spectrophotometeric analysis"}, "[4]": {"test_system": "A549", "test": "Inhibition of miR-509-3p (unknown origin) transfected in human A549 cells at 100 uM after 12 hrs by fluorescence microscopy", "type": "cell-based"}, "[5]": {"test": "Binding affinity to miR-509-3p (unknown origin) assessed as heteroduplex formation by CD spectra analysis"}, "[6]": {"test_system": "A549", "test": "Inhibition of miR-509-3p (unknown origin) transfected in human A549 cells at 10 to 50 uM by dual luciferase reporter gene assay", "type": "cell-based"}, "[7]": {"test_system": "A549", "test": "Inhibition of miR-509-3p (unknown origin) transfected in human A549 cells by dual luciferase reporter gene assay", "type": "cell-based"}},
  "note": "Calls of active or inactive are those of the source. The rule behind the calls is not given here.",
  "data": [
    {"molecule": "Cc1cn(CC(=O)N(CCNC(=O)CN(CCNC(=O)CN(CCNC(=O)CN(CCNC(=O)CN(CCNC(=O)CN(CCNC(=O)CN(CCNC(=O)COCCOCCNC(=S)Nc2ccc(C3c4ccc(O)cc4OC4=CC(=O)C=CC43)c(C(=O)O)c2)C(=O)Cn2ccc(N)nc2=O)C(=O)Cn2cnc3c(N)ncnc32)C(=O)Cn2ccc(N)nc2=O)C(=O)Cn2cnc3c(=O)[nH]c(N)nc32)C(=O)Cn2cnc3c(=O)[nH]c(N)nc32)C(=O)Cn2cnc3c(N)ncnc32)CC(=O)NCCN(CC(=O)NCCN(CC(=O)NCCN(CC(=O)NCCN(CC(=O)NCCN(CC(=O)NCCN(CC(=O)NCCN(CC(=O)NCC(=O)NC(COP(=O)(O)O)C(=O)NC(COP(=O)(O)O)C(=O)NCC(N)=O)C(=O)Cn2cc(C)c(=O)[nH]c2=O)C(=O)Cn2cnc3c(=O)[nH]c(N)nc32)C(=O)Cn2ccc(N)nc2=O)C(=O)Cn2ccc(N)nc2=O)C(=O)Cn2cnc3c(=O)[nH]c(N)nc32)C(=O)Cn2cnc3c(N)ncnc32)C(=O)Cn2cnc3c(=O)[nH]c(N)nc32)c(=O)[nH]c1=O", "note": "(stereo unspecified)", "values": [
      {"measurement": "Activity", "setting": "[1]", "result": "< 40", "unit": "%"}
    ]},
    {"molecule": "Cc1cn(CC(=O)N(CCNC(=O)CN(CCNC(=O)CN(CCNC(=O)CN(CCNC(=O)CN(CCNC(=O)CN(CCNC(=O)CN(CCNC(=O)CN(CCNC(=O)CN(CCNC(=O)CN(CCNC(=O)CN(CCNC(=O)CN(CCNC(=O)COCCOCCNC(=S)Nc2ccc(C3c4ccc(O)cc4Oc4cc(O)ccc43)c(C(=O)O)c2)C(=O)Cn2cnc3c(N)ncnc32)C(=O)Cn2cnc3c(=O)[nH]c(N)nc32)C(=O)Cn2cnc3c(N)ncnc32)C(=O)Cn2ccc(N)nc2=O)C(=O)Cn2cnc3c(=O)[nH]c(N)nc32)C(=O)Cn2cc(C)c(=O)[nH]c2=O)C(=O)Cn2cnc3c(N)ncnc32)C(=O)Cn2ccc(N)nc2=O)C(=O)Cn2ccc(N)nc2=O)C(=O)Cn2cnc3c(N)ncnc32)C(=O)Cn2cnc3c(N)ncnc32)CC(=O)NCCN(CC(=O)NCCN(CC(=O)N[C@@H](CCCCN)C(=O)N[C@@H](CCCCN)C(N)=O)C(=O)Cn2cnc3c(N)ncnc32)C(=O)Cn2ccc(N)nc2=O)c(=O)[nH]c1=O", "values": [
      {"measurement": "Activity", "setting": "[2]", "result": "Active"},
      {"measurement": "Tm(app)", "setting": "[3]", "result": 80, "unit": "°C"},
      {"measurement": "inhibition", "setting": "[4]", "result": "inactive"},
      {"measurement": "Activity", "setting": "[5]", "result": "Active"},
      {"measurement": "inhibition", "setting": "[6]", "result": "Active"}
    ]},
    {"molecule": "Cc1cn(CC(=O)N(CCNC(=O)CN(CCNC(=O)CN(CCNC(=O)CN(CCNC(=O)CN(CCNC(=O)CN(CCNC(=O)CN(CCNC(=O)CN(CCNC(=O)CN(CCNC(=O)CN(CCNC(=O)CN(CCNC(=O)CN(CCNC(=O)COCCOCCNC(=S)Nc2ccc(C3c4ccc(O)cc4OC4=CC(=O)C=CC43)c(C(=O)O)c2)C(=O)Cn2cnc3c(N)ncnc32)C(=O)Cn2cnc3c(=O)[nH]c(N)nc32)C(=O)Cn2cnc3c(N)ncnc32)C(=O)Cn2ccc(N)nc2=O)C(=O)Cn2cnc3c(=O)[nH]c(N)nc32)C(=O)Cn2cc(C)c(=O)[nH]c2=O)C(=O)Cn2cnc3c(N)ncnc32)C(=O)Cn2ccc(N)nc2=O)C(=O)Cn2ccc(N)nc2=O)C(=O)Cn2cnc3c(N)ncnc32)C(=O)Cn2cnc3c(N)ncnc32)CC(=O)NCCN(CC(=O)NCCN(CC(=O)NCC(=O)NC(COP(=O)(O)O)C(=O)NC(COP(=O)(O)O)C(=O)NCC(N)=O)C(=O)Cn2cnc3c(N)ncnc32)C(=O)Cn2ccc(N)nc2=O)c(=O)[nH]c1=O", "note": "(stereo unspecified)", "values": [
      {"measurement": "Activity", "setting": "[2]", "result": "Active"},
      {"measurement": "Tm(app)", "setting": "[3]", "result": 74, "unit": "°C"},
      {"measurement": "inhibition", "setting": "[4]", "result": "inactive"},
      {"measurement": "Activity", "setting": "[5]", "result": "Active"},
      {"measurement": "inhibition", "setting": "[7]", "result": "Dose-dependent effect"}
    ]}
  ]
}
